Patent publication US11117892B2, “Pyrrolo-pyridine derivative compound, method for preparing same, and pharmaceutical composition containing same as active ingredient for prevention or treatment of protein kinase-related diseases” (DAEGU-GYEONGBUK MEDICAL INNOVATION FOUNDATION, priority 2017, dated 2021)

Assays:
Experiment in all cases: scanMAX Kinase assay panel
Assay type in all cases: binding
Conditions in all cases: read-out: % control
RIOK3 = RIOK3 (Homo sapiens (Human), UniProt O14730)
How it was run: (§1)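 % control read-out: DMSO vehicle = 100%, positive control = 0%, test compound scaled between these two. Selectivity profiling was done on the scanMAX kinase panel.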

MUSK = MUSK (Homo sapiens (Human), UniProt O15146)
How it was run: as §1

TLK2 = TLK2 (Homo sapiens (Human), UniProt Q86UE8)
How it was run: as §1

[1] = molecular target: RSK3(Kin.Dom.2-C-terminal) (Homo sapiens (Human), UniProt Q15349)
How it was run: as §1

TRKC = TRKC (Homo sapiens (Human), UniProt Q16288)
How it was run: as §1

SgK110 = SgK110 (Homo sapiens (Human), UniProt P0C264)
How it was run: as §1

KIT = KIT (Homo sapiens (Human), UniProt P10721)
How it was run: as §1

RIPK2 = RIPK2 (Homo sapiens (Human), UniProt O43353)
How it was run: as §1

MLCK = MLCK (Homo sapiens (Human), UniProt Q32MK0)
How it was run: as §1

MAP3K15 = MAP3K15 (Homo sapiens (Human), UniProt Q6ZN16)
How it was run: as §1

DRAK1 = DRAK1 (Homo sapiens (Human), UniProt Q9UEE5)
How it was run: as §1

RIPK1 = RIPK1 (Homo sapiens (Human), UniProt Q13546)
How it was run: as §1

CTK = CTK (Homo sapiens (Human), UniProt P42679)
How it was run: as §1

[2] = molecular target: RSK4(Kin.Dom.1-N-terminal) (Homo sapiens (Human), UniProt Q9UK32)
How it was run: as §1

MARK1 = MARK1 (Homo sapiens (Human), UniProt Q9P0L2)
How it was run: as §1

CSNK1A1 = CSNK1A1 (Homo sapiens (Human), UniProt P48729)
How it was run: as §1

ULK3 = ULK3 (Homo sapiens (Human), UniProt Q6PHR2)
How it was run: as §1

NDR1 = NDR1 (Homo sapiens (Human), UniProt Q15208)
How it was run: as §1

AXL = AXL (Homo sapiens (Human), UniProt P30530)
How it was run: as §1

[3] = molecular target: JAK1(JH2domain-pseudokinase) (Homo sapiens (Human), UniProt P23458)
How it was run: as §1

TGFBR1 = TGFBR1 (Homo sapiens (Human), UniProt P36897)
How it was run: as §1

EPHA8 = EPHA8 (Homo sapiens (Human), UniProt P29322)
How it was run: as §1

MEK3 = MEK3 (Homo sapiens (Human), UniProt P46734)
How it was run: as §1

CDKL1 = CDKL1 (Homo sapiens (Human), UniProt Q00532)
How it was run: as §1

ALK(L1196M) = ALK(L1196M) (Homo sapiens (Human), UniProt Q9UM73, L1196M)
How it was run: as §1

[4] = molecular target: ABL1(F317I)-phosphorylated (Homo sapiens (Human), UniProt P00519, F317I)
How it was run: as §1

EGFR(G719S) = EGFR(G719S) (Homo sapiens (Human), UniProt P00533, G719S)
How it was run: as §1

MAP4K5 = MAP4K5 (Homo sapiens (Human), UniProt Q9Y4K4)
How it was run: as §1

LATS2 = LATS2 (Homo sapiens (Human), UniProt Q9NRM7)
How it was run: as §1

IKK-beta = IKK-beta (Homo sapiens (Human), UniProt O14920)
How it was run: as §1

LZK = LZK (Homo sapiens (Human), UniProt O43283)
How it was run: as §1

EIF2AK1 = EIF2AK1 (Homo sapiens (Human), UniProt Q9BQI3)
How it was run: as §1

CAMK2D = CAMK2D (Homo sapiens (Human), UniProt Q13557)
How it was run: as §1

GRK2 = GRK2 (Homo sapiens (Human), UniProt P25098)
How it was run: as §1

NEK3 = NEK3 (Homo sapiens (Human), UniProt P51956)
How it was run: as §1

LKB1 = LKB1 (Homo sapiens (Human), UniProt Q15831)
How it was run: as §1

FGR = FGR (Homo sapiens (Human), UniProt P09769)
How it was run: as §1

MARK2 = MARK2 (Homo sapiens (Human), UniProt Q7KZI7)
How it was run: as §1

DLK = DLK (Homo sapiens (Human), UniProt Q12852)
How it was run: as §1

Sequence of RSK4(Kin.Dom.1-N-terminal) (Q9UK32 73-330): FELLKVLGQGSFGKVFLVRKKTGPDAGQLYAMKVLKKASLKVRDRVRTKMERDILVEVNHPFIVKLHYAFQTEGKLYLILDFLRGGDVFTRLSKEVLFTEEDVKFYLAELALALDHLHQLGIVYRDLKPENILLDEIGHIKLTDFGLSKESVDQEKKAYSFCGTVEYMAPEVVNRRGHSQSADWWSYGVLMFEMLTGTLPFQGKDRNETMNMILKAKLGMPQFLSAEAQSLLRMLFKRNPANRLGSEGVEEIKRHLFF
Sequence of DLK (Q12852 whole entry): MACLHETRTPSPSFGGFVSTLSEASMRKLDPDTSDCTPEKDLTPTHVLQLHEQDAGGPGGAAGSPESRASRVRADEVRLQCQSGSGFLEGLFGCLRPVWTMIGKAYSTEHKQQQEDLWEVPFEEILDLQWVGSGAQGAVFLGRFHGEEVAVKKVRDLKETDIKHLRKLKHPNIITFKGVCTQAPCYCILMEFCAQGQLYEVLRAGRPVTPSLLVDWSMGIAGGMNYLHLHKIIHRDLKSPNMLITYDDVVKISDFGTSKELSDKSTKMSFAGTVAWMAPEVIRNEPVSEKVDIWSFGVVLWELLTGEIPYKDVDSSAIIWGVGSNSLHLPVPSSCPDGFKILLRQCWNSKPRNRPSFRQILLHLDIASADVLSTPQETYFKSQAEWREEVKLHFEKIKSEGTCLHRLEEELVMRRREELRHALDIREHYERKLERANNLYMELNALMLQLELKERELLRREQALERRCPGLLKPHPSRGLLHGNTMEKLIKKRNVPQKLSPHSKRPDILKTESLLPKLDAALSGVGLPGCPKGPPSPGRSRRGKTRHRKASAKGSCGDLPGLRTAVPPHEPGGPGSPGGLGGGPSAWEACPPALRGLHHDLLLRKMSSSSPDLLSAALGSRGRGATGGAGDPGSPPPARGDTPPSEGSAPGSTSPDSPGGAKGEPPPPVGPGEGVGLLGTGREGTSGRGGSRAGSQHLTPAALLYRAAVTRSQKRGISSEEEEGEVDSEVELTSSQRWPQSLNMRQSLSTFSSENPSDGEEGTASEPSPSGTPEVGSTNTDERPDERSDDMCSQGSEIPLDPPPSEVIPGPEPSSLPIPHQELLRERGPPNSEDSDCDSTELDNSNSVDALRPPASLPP
Sequence of MUSK (O15146 24-869): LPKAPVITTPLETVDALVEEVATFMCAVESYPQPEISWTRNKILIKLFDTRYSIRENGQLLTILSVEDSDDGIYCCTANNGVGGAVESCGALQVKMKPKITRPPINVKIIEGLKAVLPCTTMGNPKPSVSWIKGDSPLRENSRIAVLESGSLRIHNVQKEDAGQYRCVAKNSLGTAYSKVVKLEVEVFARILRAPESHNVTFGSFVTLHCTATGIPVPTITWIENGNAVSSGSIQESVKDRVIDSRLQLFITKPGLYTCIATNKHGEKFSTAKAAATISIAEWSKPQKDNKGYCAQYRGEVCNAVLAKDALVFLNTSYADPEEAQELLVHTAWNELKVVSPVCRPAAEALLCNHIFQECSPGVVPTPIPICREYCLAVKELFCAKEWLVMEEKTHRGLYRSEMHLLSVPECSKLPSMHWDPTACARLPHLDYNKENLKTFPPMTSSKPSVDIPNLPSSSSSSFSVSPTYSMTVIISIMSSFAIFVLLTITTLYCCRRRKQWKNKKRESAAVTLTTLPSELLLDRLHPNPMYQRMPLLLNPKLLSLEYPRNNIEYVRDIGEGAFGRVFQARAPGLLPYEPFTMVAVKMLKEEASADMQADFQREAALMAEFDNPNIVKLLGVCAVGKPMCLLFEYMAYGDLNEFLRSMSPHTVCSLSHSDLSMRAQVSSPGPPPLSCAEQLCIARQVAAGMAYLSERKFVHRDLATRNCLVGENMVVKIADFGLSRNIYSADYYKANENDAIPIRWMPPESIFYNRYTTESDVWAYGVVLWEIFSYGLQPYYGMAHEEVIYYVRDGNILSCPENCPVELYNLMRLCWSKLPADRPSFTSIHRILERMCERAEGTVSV
Sequence of EIF2AK1 (Q9BQI3 whole entry): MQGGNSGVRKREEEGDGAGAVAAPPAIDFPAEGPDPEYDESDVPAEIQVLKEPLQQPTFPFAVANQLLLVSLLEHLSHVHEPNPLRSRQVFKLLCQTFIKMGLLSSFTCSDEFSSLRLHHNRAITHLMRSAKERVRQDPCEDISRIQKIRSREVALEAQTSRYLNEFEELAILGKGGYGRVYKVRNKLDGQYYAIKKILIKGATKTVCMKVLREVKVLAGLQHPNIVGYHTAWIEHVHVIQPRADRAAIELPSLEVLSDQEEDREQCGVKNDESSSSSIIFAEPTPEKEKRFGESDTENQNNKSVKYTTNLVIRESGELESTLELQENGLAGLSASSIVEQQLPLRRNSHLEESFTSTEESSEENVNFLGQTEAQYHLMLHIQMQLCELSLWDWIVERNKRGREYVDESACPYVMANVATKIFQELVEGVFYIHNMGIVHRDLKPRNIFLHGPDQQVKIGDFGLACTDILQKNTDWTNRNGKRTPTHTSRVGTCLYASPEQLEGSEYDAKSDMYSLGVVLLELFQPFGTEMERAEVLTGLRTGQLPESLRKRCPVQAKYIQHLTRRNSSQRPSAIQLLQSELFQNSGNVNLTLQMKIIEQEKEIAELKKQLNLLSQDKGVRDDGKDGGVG
Sequence of CTK (P42679 whole entry): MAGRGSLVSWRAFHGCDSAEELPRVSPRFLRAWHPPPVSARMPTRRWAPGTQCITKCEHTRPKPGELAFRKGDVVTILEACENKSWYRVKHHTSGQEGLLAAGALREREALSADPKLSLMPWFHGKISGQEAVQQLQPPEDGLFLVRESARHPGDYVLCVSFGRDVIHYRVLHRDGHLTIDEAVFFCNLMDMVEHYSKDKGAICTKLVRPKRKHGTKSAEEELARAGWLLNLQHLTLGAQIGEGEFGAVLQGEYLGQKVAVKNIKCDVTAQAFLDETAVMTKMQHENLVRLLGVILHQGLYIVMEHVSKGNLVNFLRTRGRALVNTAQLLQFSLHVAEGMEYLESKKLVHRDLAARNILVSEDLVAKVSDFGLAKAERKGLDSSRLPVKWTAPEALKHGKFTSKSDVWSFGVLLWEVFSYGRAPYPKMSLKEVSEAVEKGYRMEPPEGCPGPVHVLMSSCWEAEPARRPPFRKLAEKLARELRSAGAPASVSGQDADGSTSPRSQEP
Sequence of CDKL1 (Q00532 whole entry): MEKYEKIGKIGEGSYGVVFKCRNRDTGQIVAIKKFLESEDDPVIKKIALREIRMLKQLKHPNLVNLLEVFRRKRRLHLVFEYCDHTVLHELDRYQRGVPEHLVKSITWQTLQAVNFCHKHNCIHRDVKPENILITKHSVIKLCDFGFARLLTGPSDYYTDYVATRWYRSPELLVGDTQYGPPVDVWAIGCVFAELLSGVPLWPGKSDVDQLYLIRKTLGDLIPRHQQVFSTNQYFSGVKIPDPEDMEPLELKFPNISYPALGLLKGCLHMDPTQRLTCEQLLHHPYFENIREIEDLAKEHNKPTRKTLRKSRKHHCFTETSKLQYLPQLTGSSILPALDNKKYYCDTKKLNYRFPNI
Sequence of RSK3(Kin.Dom.2-C-terminal) (Q15349 415-672): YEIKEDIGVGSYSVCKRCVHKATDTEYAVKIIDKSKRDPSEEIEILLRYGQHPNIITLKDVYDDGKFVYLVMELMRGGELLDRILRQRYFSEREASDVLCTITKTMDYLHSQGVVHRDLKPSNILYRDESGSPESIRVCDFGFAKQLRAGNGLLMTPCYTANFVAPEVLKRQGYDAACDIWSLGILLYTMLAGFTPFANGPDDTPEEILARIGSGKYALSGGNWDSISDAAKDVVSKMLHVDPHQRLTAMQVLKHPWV
Sequence of GRK2 (P25098 whole entry): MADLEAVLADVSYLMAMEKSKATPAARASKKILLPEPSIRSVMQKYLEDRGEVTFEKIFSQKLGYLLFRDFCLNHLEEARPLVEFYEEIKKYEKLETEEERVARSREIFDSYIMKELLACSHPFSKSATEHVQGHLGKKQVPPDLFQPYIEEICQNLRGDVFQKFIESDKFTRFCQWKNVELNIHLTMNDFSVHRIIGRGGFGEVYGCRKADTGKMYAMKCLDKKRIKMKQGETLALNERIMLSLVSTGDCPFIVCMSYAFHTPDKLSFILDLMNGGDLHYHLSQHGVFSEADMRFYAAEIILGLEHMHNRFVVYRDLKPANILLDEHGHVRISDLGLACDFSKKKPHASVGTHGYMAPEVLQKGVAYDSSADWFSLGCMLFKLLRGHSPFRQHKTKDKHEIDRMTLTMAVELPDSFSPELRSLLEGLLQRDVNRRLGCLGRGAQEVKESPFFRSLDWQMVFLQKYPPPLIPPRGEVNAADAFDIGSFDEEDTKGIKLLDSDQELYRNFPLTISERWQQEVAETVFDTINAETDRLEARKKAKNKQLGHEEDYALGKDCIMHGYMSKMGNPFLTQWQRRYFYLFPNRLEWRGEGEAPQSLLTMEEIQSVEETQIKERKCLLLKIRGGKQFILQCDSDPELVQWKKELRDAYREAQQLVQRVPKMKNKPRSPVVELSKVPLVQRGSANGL
Sequence of JAK1(JH2domain-pseudokinase) (P23458 583-855): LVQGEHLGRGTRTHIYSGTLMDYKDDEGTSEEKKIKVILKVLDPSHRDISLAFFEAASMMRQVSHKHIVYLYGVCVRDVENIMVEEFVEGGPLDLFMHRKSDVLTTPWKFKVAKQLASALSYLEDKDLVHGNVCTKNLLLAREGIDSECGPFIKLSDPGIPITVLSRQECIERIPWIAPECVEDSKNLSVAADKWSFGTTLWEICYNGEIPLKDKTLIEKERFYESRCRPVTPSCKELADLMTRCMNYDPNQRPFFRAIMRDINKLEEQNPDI

SMILES | remaining binding at 1 µM (RIOK3) | remaining binding at 1 µM (MUSK) | remaining binding at 1 µM (TLK2) | remaining binding at 1 µM [1] | remaining binding at 1 µM (TRKC) | remaining binding at 1 µM (SgK110) | remaining binding at 1 µM (KIT) | remaining binding at 1 µM (RIPK2) | remaining binding at 1 µM (MLCK) | remaining binding at 1 µM (MAP3K15) | remaining binding at 1 µM (DRAK1) | remaining binding at 1 µM (RIPK1) | remaining binding at 1 µM (CTK) | remaining binding at 1 µM [2] | remaining binding at 1 µM (MARK1) | remaining binding at 1 µM (CSNK1A1) | remaining binding at 1 µM (ULK3) | remaining binding at 1 µM (NDR1) | remaining binding at 1 µM (AXL) | remaining binding at 1 µM [3] | further results
CCNc1cc(Nc2ccc(C(=O)N3CCC(N4CCOCC4)CC3)cc2OC)nc2[nH]cc(C(F)(F)F)c12 [Example 57, (4-((4-(ethylamino)-3-(trifluoromethyl)-1H-pyrrolo[2,3-b]pyridin-6-yl)amino)-3-methoxyphenyl) (4-morpholinopiperidin-1-yl)methanone] | 96% | 100% | 88% | 82% | 100% | 96% | 91% | 94% | 78% | 100% | 67% | 92% | 84% | 100% | 82% | 51% | 83% | 89% | 100% | 45% | remaining binding at 1 µM (TGFBR1): 69%; remaining binding at 1 µM (EPHA8): 100%; remaining binding at 1 µM (MEK3): 81%; remaining binding at 1 µM (CDKL1): 63%; remaining binding at 1 µM (ALK(L1196M)): 14%; remaining binding at 1 µM [4]: 100%; remaining binding at 1 µM (EGFR(G719S)): 92%; remaining binding at 1 µM (MAP4K5): 100%; remaining binding at 1 µM (LATS2): 100%; remaining binding at 1 µM (IKK-beta): 100%; remaining binding at 1 µM (LZK): 100%; remaining binding at 1 µM (EIF2AK1): 99%; remaining binding at 1 µM (CAMK2D): 47%; remaining binding at 1 µM (GRK2): 95%; remaining binding at 1 µM (NEK3): 93%; remaining binding at 1 µM (LKB1): 92%; remaining binding at 1 µM (FGR): 78%; remaining binding at 1 µM (MARK2): 93%; remaining binding at 1 µM (DLK): 100%
CCNc1cc(Nc2ccc(C(=O)N3CCC(N4CCOCC4)CC3)cc2OC)nc2[nH]cc(C#N)c12 [Example 18, 4-(ethylamino)-6-((2-methoxy-4-(4-morpholinopiperidine-1-carbonyl)phenyl)amino)-1H-pyrrolo[2,3-b]pyridine-3-carbonitrile] | 98% | 97% | 98% | 12% | 93% | 100% | 49% | 86% | 87% | 53% | 56% | 94% | 100% | 81% | 84% | 8.2% | 95% | 69% | 98% | 82% | remaining binding at 1 µM (TGFBR1): 100%; remaining binding at 1 µM (EPHA8): 85%; remaining binding at 1 µM (MEK3): 4.3%; remaining binding at 1 µM (CDKL1): 89%; remaining binding at 1 µM (ALK(L1196M)): 13%; remaining binding at 1 µM [4]: 80%; remaining binding at 1 µM (EGFR(G719S)): 80%; remaining binding at 1 µM (MAP4K5): 99%; remaining binding at 1 µM (LATS2): 26%; remaining binding at 1 µM (IKK-beta): 77%; remaining binding at 1 µM (LZK): 100%; remaining binding at 1 µM (EIF2AK1): 92%; remaining binding at 1 µM (CAMK2D): 82%; remaining binding at 1 µM (GRK2): 71%; remaining binding at 1 µM (NEK3): 87%; remaining binding at 1 µM (LKB1): 62%; remaining binding at 1 µM (FGR): 100%; remaining binding at 1 µM (MARK2): 89%; remaining binding at 1 µM (DLK): 79%
